Assay results from patent US20240285776A1, “SMALL MOLECULE-BASED BI-SPECIFIC IMMUNE CELL TETHERS AND THEIR USE IN THE TREATMENT OF ENVELOPED VIRUS INFECTION” (PURDUE RESEARCH FOUNDATION, priority 2021, published 2024).

What was measured:
[1] = test system: Influenza A H1N1/PR8/1932 virus; set-up: species or system BALB/C mice; details: mouse, in vivo
influenza infection = assay: Treatment of FRβ knockout mice following influenza infection; format: in vivo, folate receptor beta (FRβ) knockout mice; details: FRβ knockout mice treated following influenza infection
[2] = test system: Influenza A Puerto Rico/8/1934 (H1N1) virus; format: in vivo, BALB/C mice; details: for weight-loss phenomenon: 1.5 μmol/kg once daily for five consecutive days, linear PEG linkers compared to the DBCO-containing linker; for survival rate at the end of the experiment: mouse, in vivo
[3] = test system: Influenza A Puerto Rico8/1934 (H1N1) virus; format: in vivo, BALB/C mice

| Compound | body weight over time [1] | survival at the end of two weeks long experiment [1] | survival at the end of the experiment (influenza infection) | weight-loss phenomenon [2] | survival rate at the end of the experiment [2] | dose response of survival rate ([3]; […], 1.5, 0.5 and 0.17 μmol/kg once daily for five consecutive days) | survival rate ([3]; mouse, in vivo) |
| --- | --- | --- | --- | --- | --- | --- | --- |
| CC(=O)N[C@H]1[C@H]([C@H](OC(=O)NCCOCCOCCOCCOCCOCCOCCNC(=O)CC[C@H](NC(=O)c2ccc(NCc3cnc4nc(N)[nH]c(=O)c4n3)cc2)C(=O)O)[C@H](O)CO)OC(C(=O)O)=C[C@@H]1NC(=N)N [Compound 10] | did not lose any body weight | both the mice survived | None of the mice survived | more pronounced | 90% | increased with increasing dose | 100% |
| CC(=O)N[C@H]1[C@H]([C@H](OC(=O)NCCOCCOCCOCCOCCOCCOCCOCCOCCOCCOCCOCCNC(=O)CC[C@H](NC(=O)c2ccc(NCc3cnc4nc(N)[nH]c(=O)c4n3)cc2)C(=O)O)[C@H](O)CO)OC(C(=O)O)=C[C@@H]1NC(=N)N [zan-PEG11-folate] |  |  |  | more pronounced | 100% |  |  |
